Experiment [1] has as its system NCI-H292 lung cancer cells. Nature of the experiment: FDA drug screening, complete media vs cholesterol-free media with simvastatin (TABLE 2). The experiment is classed as cell-based, human. Conditions: for Cholesterol-free media + simvastatin (0.04 μM) / Complete Media: NCI-H292 cells.
Experiment [2] has as its system NCI-H292 lung cancer cells. The experiment is described as follows: FDA drug screening, complete media vs cholesterol-free media without statin (TABLE 1). The experiment is classed as cell-based, human.
The mark [3] stands for this setting: FDA drug library screen, cholesterol-free media with simvastatin 0.04 μM.
Where [4] appears, read: FDA drug library screen, complete media.
Setting [5] is: complete media minus cholesterol-free media + simvastatin, >0 enhanced anti-cancer activity, about 0 neutral, <0 antagonist.
Setting [6] is: Complete minus Cholesterol-free; >0 enhanced anti-cancer activity, about 0 neutral, <0 antagonist.
Setting [7] is: NCI-H292 cells, cholesterol-free media without statin, FDA drug library screen.
Where [8] appears, read: NCI-H292 cells, complete media, FDA drug library screen.
Where [9] appears, read: drug in cholesterol-free media with simvastatin 0.04 μM.
Where [10] appears, read: complete media vs cholesterol-free media + simvastatin (0.04 μM), >0 enhanced anti-cancer activity, about 0 neutral, <0 antagonist.
The mark [11] stands for this setting: NCI-H292 cells, cholesterol-free media without statin.
Setting [12] is: complete vs cholesterol-free media; >0 enhanced anti-cancer activity, about 0 neutral, <0 antagonist.
[13] abbreviates: complete vs cholesterol-free media; greater than 0 enhanced anti-cancer activity, about 0 neutral, below 0 antagonists.

The record followed here is patent publication US20250144067A1, “PERSONALIZED STARVATION THERAPY FOR CANCER” (Faeth Therapeutics, Inc., priority 2021, published 2025).

Where a name gives a salt, the structure may show the parent alone.

In the case of `O[C@@H]1CO[C@H]2[C@@H]1OC[C@@H]2O` [Isosorbide], the “Cholesterol-free media + simvastatin (0.04 μM)” value in experiment [1] (setting [3]) worked out at 0.9214. The “Complete Media” value in experiment [1] (setting [4]) is 1.515. The Difference in experiment [1] (setting [5]) was 0.59; in experiment [2] (setting [6]), −0.05. In addition, the Cholesterol-free in experiment [2] (setting [7]) is listed as 1.174. Moreover, in experiment [2] (setting [8]), the Complete turned out to be 1.123.
For the compound `CCCCC(=O)N(Cc1ccc(-c2ccccc2-c2nnn[nH]2)cc1)[C@H](C(=O)O)C(C)C` [Valsartan], the “Cholesterol-free media + simvastatin (0.04 μM)” value in experiment [1] (setting [9]) was found to be 1.056. Moreover, the “Complete Media” value in experiment [1] (drug in complete media) is recorded as 0.8568. Besides, the Difference in experiment [1] (setting [10]) was −0.20; in experiment [2] (Complete minus Cholesterol-free; greater than 0 enhanced anti-cancer activity, about 0 neutral, below 0 antagonist) it was −0.09. In experiment [2] (NCI-H292 cells, FDA drug library screen, cholesterol-free media without statin), this compound registered a Cholesterol-free of 0.8984. In experiment [2] (NCI-H292 cells, FDA drug library screen, complete media), this compound had a Complete of 0.8065.
As for `C[C@H]1C[C@@H]2[C@H]([C@@H](O)C[C@@]3(C)[C@H]2CC[C@]3(O)C(=O)CO)[C@@]2(C)C=CC(=O)C=C12` [Methylprednisolone], in experiment [1] (setting [3]), the “Cholesterol-free media + simvastatin (0.04 μM)” value was 1.016. For the same compound, the “Complete Media” value in experiment [1] (setting [4]) is 1.212. Besides, the Difference in experiment [1] (setting [5]) is 0.20; in experiment [2] (setting [6]) it was −0.22. Moreover, the Cholesterol-free in experiment [2] (setting [11]) stood at 0.8356. For the same compound, the Complete in experiment [2] (NCI-H292 cells, complete media) is reported as 0.6178.
Regarding `COc1cccc2c1C(=O)c1c(O)c3c(c(O)c1C2=O)C[C@@](O)(C(C)=O)C[C@@H]3O[C@H]1C[C@H](N)[C@H](O)[C@H](C)O1` [Daunorubicin (Hydrochloride)], the “Cholesterol-free media + simvastatin (0.04 μM)” value in experiment [1] (cholesterol-free media with simvastatin 0.04 μM, FDA drug library screen (TABLE 2)) is 0.006543. Besides, the “Complete Media” value in experiment [1] (complete media, FDA drug library screen (TABLE 2)) is −0.007495. Further, the Difference in experiment [1] (complete media minus cholesterol-free media + simvastatin (0.04 μM), […]) is −0.01; in experiment [2] (Complete minus Cholesterol-free; […]), −0.01. The Cholesterol-free in experiment [2] (setting [7]) is on record as 0.01433. The compound also gave a Complete in experiment [2] (setting [8]) of 0.008412.
In the case of `COc1cc(OC)c(C(=O)CCCN2CCCC2)c(OC)c1` [Buflomedil (hydrochloride)], the “Cholesterol-free media + simvastatin (0.04 μM)” value in experiment [1] (setting [3]) is listed as 0.7629. Also, the “Complete Media” value in experiment [1] (setting [4]) came out at 1.555. For the same compound, the Difference in experiment [1] (setting [5]) is reported as 0.79; in experiment [2] (setting [6]) it was −0.02. For the same compound, the Cholesterol-free in experiment [2] (setting [7]) is 0.6014. The Complete in experiment [2] (setting [8]) was determined as 0.5837.
With `CC(C)C(=O)Oc1ccc(CO)cc1[C@H](CCN(C(C)C)C(C)C)c1ccccc1` [Fesoterodine (L-mandelate)], the “Cholesterol-free media + simvastatin (0.04 μM)” value in experiment [1] (setting [3]) was determined as 1.103. For the same compound, the “Complete Media” value in experiment [1] (setting [4]) stood at 0.9892. The values for the Difference in experiment [1] (setting [10]) and in experiment [2] (setting [12]) were −0.11 and 0.52, respectively. In experiment [2] (setting [7]), this compound came in with a Cholesterol-free of 0.7419. The Complete in experiment [2] (setting [8]) was determined as 1.264.
On to `O=S(=O)(O)Oc1ccc(C(c2ccc(OS(=O)(=O)O)cc2)c2ccccn2)cc1` [Sodium Picosulfate], for which the “Cholesterol-free media + simvastatin (0.04 μM)” value in experiment [1] (setting [3]) stood at 0.987. Also, the “Complete Media” value in experiment [1] (setting [4]) is 1.164. Moreover, the Difference was 0.18 in experiment [1] (setting [5]) and −0.37 in experiment [2] (setting [13]). Further, the Cholesterol-free in experiment [2] (setting [11]) turned out to be 1.414. The Complete in experiment [2] (NCI-H292 cells, complete media) came out at 1.043.
On to `CN1CC(=O)N2[C@H](c3ccc4c(c3)OCO4)c3[nH]c4ccccc4c3C[C@@H]2C1=O` [Tadalafil], for which the “Cholesterol-free media + simvastatin (0.04 μM)” value in experiment [1] (setting [3]) is on record as 1.05. The “Complete Media” value in experiment [1] (setting [4]) is 0.9711. In addition, the figures for the Difference in experiment [1] (setting [10]) and in experiment [2] (setting [13]) were −0.08 and −0.33, respectively. In experiment [2] (setting [11]), this compound had a Cholesterol-free of 1.298. The Complete in experiment [2] (NCI-H292 cells, complete media) amounted to 0.971.
For the compound `N[C@H](C(=O)O)[C@H](O)c1ccc(O)c(O)c1` [Droxidopa], in experiment [1] (setting [9]), the “Cholesterol-free media + simvastatin (0.04 μM)” value came to 1.236. Moreover, the “Complete Media” value in experiment [1] (drug in complete media) is 1.023. Further, the Difference in experiment [1] (setting [10]) was −0.21; in experiment [2] (setting [12]) it was 0.24. Moreover, the Cholesterol-free in experiment [2] (setting [7]) came to 0.9972. In addition, the Complete in experiment [2] (setting [8]) stood at 1.24.
For the compound `Nc1nc2ncc(CNc3ccc(C(=O)N[C@@H](CCC(=O)O)C(=O)O)cc3)nc2c(=O)[nH]1` [Folic acid], the “Cholesterol-free media + simvastatin (0.04 μM)” value in experiment [1] (setting [9]) is listed as 1.118. Further, in experiment [1] (drug in complete media), the “Complete Media” value came out at 0.9443. The results for the Difference in experiment [1] (setting [10]) and in experiment [2] (setting [13]) were −0.17 and −0.42, respectively. In experiment [2] (setting [11]), this compound gave a Cholesterol-free of 1.731. For the same compound, in experiment [2] (NCI-H292 cells, complete media), the Complete was 1.312.
